{
  "source": "ChEMBL document CHEMBL4834469",
  "about": "“Balancing Properties with Carboxylates: A Lead Optimization Campaign for Selective and Orally Active CDK9 Inhibitors” (ACS Med Chem Lett, 2021)",
  "key": {"in vivo [1]": {"assay": "in vivo", "settings": "rat, po, 1 mg/kg"}, "in vitro [2]": {"assay": "in vitro", "settings": "rat, plasma", "description": "Plasma protein binding in rat"}, "in vivo [3]": {"assay": "in vivo", "settings": "rat, iv, 1 mg/kg", "description": "Volume of distribution at steady state in rat at 1 mg/kg, iv"}, "in vitro [4]": {"assay": "in vitro", "settings": "human, plasma", "description": "Plasma protein binding in human"}, "in vivo [5]": {"assay": "in vivo", "settings": "rat, po, 1 mg/kg", "remark": "listed apart in the source"}, "in vivo [6]": {"assay": "in vivo", "settings": "rat, iv, 1 mg/kg", "remark": "listed apart in the source", "description": "Half life in rat at 1 mg/kg, iv"}, "in vivo [7]": {"assay": "in vivo", "settings": "Sprague-Dawley, rat, iv, 10 mg/kg", "description": "Plasma concentration in anesthetized Sprague-Dawley rat upto 10 mg/kg, iv administered as single dose measured after 30 mins"}, "NCI-H929": {"test_system": "NCI-H929", "assay": "cells", "settings": "Homo sapiens, NCI-H929, 24 h", "description": "Antiproliferative activity against human NCI-H929 cells assessed as reduction in cell viability incubated for 24 hrs by Cell-Titer Glo assay"}},
  "data": [
    {"smiles": "COc1ccc(F)cc1-c1ccnc2[nH]c(C3=CCC(C(=O)O)CC3)cc12", "note": "(centres undefined)", "values": [
      {"measurement": "bioavailability", "setting": "in vivo [1]", "value": 70, "unit": "%"},
      {"measurement": "fraction unbound", "setting": "in vitro [2]", "value": 0.004},
      {"measurement": "Vd", "setting": "in vivo [3]", "value": 0.51, "unit": "L/kg"},
      {"measurement": "fraction unbound", "setting": "in vitro [4]", "value": 0.002},
      {"measurement": "AUC", "setting": "in vivo [5]", "value": 3100, "unit": "ng·h/mL"},
      {"measurement": "half-life", "setting": "in vivo [6]", "value": 2.1, "unit": "h"}
    ]},
    {"smiles": "COc1ccc(F)cc1-c1ccnc2[nH]c(C3=CCC(N[C@@H](C(=O)O)C(C)C)CC3)cc12", "note": "(some centres undefined)", "values": [
      {"measurement": "bioavailability", "setting": "in vivo [1]", "value": 0.2, "unit": "%"},
      {"measurement": "fraction unbound", "setting": "in vitro [2]", "value": 0.057},
      {"measurement": "Vd", "setting": "in vivo [3]", "value": 1, "unit": "L/kg"},
      {"measurement": "fraction unbound", "setting": "in vitro [4]", "value": 0.023},
      {"measurement": "AUC", "setting": "in vivo [5]", "value": "< 10", "unit": "ng·h/mL"},
      {"measurement": "half-life", "setting": "in vivo [6]", "value": 0.68, "unit": "h"}
    ]},
    {"smiles": "COc1ccc(F)cc1-c1ccnc2[nH]c(C3=CCN([C@H]4CC[C@@H](CC(=O)O)CC4)CC3)cc12", "values": [
      {"measurement": "bioavailability", "setting": "in vivo [1]", "value": 7.9, "unit": "%"},
      {"measurement": "fraction unbound", "setting": "in vitro [2]", "value": 0.183},
      {"measurement": "Vd", "setting": "in vivo [3]", "value": 3.4, "unit": "L/kg"},
      {"measurement": "fraction unbound", "setting": "in vitro [4]", "value": 0.036},
      {"measurement": "AUC", "setting": "in vivo [5]", "value": 40, "unit": "ng·h/mL"},
      {"measurement": "half-life", "setting": "in vivo [6]", "value": 1.7, "unit": "h"}
    ]},
    {"smiles": "COc1ccc(F)cc1-c1ccnc2[nH]c(C3=CCN([C@H]4CC[C@H](CC(=O)O)CC4)CC3)cc12", "values": [
      {"measurement": "bioavailability", "setting": "in vivo [1]", "value": 21, "unit": "%"},
      {"measurement": "fraction unbound", "setting": "in vitro [2]", "value": 0.087},
      {"measurement": "Vd", "setting": "in vivo [3]", "value": 4.5, "unit": "L/kg"},
      {"measurement": "fraction unbound", "setting": "in vitro [4]", "value": 0.037},
      {"measurement": "AUC", "setting": "in vivo [5]", "value": 160, "unit": "ng·h/mL"},
      {"measurement": "half-life", "setting": "in vivo [6]", "value": 2.8, "unit": "h"}
    ]},
    {"smiles": "COc1ccc(F)cc1-c1c(F)cnc2[nH]c(C3=CCN([C@H]4CC[C@H](C(=O)O)CC4)CC3)cc12", "values": [
      {"measurement": "bioavailability", "setting": "in vivo [1]", "value": 28, "unit": "%"},
      {"measurement": "fraction unbound", "setting": "in vitro [2]", "value": 0.106},
      {"measurement": "Vd", "setting": "in vivo [3]", "value": 2.7, "unit": "L/kg"},
      {"measurement": "concentration at 0.5 h", "setting": "in vivo [7]", "value": 9000, "unit": "ng/mL"},
      {"measurement": "fraction unbound", "setting": "in vitro [4]", "value": 0.059},
      {"measurement": "AUC", "setting": "in vivo [5]", "value": 450, "unit": "ng·h/mL"},
      {"measurement": "half-life", "setting": "in vivo [6]", "value": 3.5, "unit": "h"}
    ]},
    {"smiles": "CCOC(=O)NS(=O)(=O)N1CC=C(c2cc3c(-c4cc(F)ccc4OC)ccnc3[nH]2)CC1", "values": [
      {"measurement": "bioavailability", "setting": "in vivo [1]", "value": 64, "unit": "%"},
      {"measurement": "fraction unbound", "setting": "in vitro [2]", "value": 0.042},
      {"measurement": "Vd", "setting": "in vivo [3]", "value": 0.29, "unit": "L/kg"},
      {"measurement": "fraction unbound", "setting": "in vitro [4]", "value": "< 0.001"},
      {"measurement": "AUC", "setting": "in vivo [5]", "value": 2400, "unit": "ng·h/mL"},
      {"measurement": "half-life", "setting": "in vivo [6]", "value": 1.6, "unit": "h"}
    ]},
    {"smiles": "COc1ccc(F)cc1-c1c(F)cnc2[nH]c(C3=CCN([C@H]4CC[C@@H](C(=O)O)CC4)CC3)cc12", "values": [
      {"measurement": "bioavailability", "setting": "in vivo [1]", "value": 13, "unit": "%"},
      {"measurement": "fraction unbound", "setting": "in vitro [2]", "value": 0.099},
      {"measurement": "Vd", "setting": "in vivo [3]", "value": 2.6, "unit": "L/kg"},
      {"measurement": "fraction unbound", "setting": "in vitro [4]", "value": 0.066},
      {"measurement": "AUC", "setting": "in vivo [5]", "value": 140, "unit": "ng·h/mL"},
      {"measurement": "half-life", "setting": "in vivo [6]", "value": 3, "unit": "h"}
    ]},
    {"smiles": "COc1ccc(F)cc1-c1c(F)cnc2[nH]c(C3=CCN([C@H]4CC[C@H](CC(=O)O)CC4)CC3)cc12", "values": [
      {"measurement": "bioavailability", "setting": "in vivo [1]", "value": 11, "unit": "%"},
      {"measurement": "fraction unbound", "setting": "in vitro [2]", "value": 0.082},
      {"measurement": "Vd", "setting": "in vivo [3]", "value": 2.9, "unit": "L/kg"},
      {"measurement": "fraction unbound", "setting": "in vitro [4]", "value": 0.041},
      {"measurement": "AUC", "setting": "in vivo [5]", "value": 140, "unit": "ng·h/mL"},
      {"measurement": "half-life", "setting": "in vivo [6]", "value": 2.8, "unit": "h"}
    ]},
    {"smiles": "COc1ccc(F)cc1-c1ccnc2[nH]c(C3=CCN([C@H]4CC[C@H](C(=O)O)CC4)CC3)cc12", "values": [
      {"measurement": "bioavailability", "setting": "in vivo [1]", "value": 23, "unit": "%"},
      {"measurement": "fraction unbound", "setting": "in vitro [2]", "value": 0.09},
      {"measurement": "Vd", "setting": "in vivo [3]", "value": 1.9, "unit": "L/kg"},
      {"measurement": "concentration at 0.5 h", "setting": "in vivo [7]", "value": 5500, "unit": "ng/mL"},
      {"measurement": "fraction unbound", "setting": "in vitro [4]", "value": 0.079},
      {"measurement": "AUC", "setting": "in vivo [5]", "value": 400, "unit": "ng·h/mL"},
      {"measurement": "half-life", "setting": "in vivo [6]", "value": 3.3, "unit": "h"}
    ]},
    {"smiles": "COc1ccc(F)cc1-c1ccnc2[nH]c(C3=CCN(c4ccc(CC(=O)O)cc4)CC3)cc12", "values": [
      {"measurement": "IC50", "setting": "NCI-H929", "value": "> 10000", "unit": "nM"}
    ]},
    {"smiles": "COc1ccc(F)cc1-c1ccnc2[nH]c(C3=CCN([C@H]4CC[C@@H](C(=O)O)CC4)CC3)cc12", "values": [
      {"measurement": "bioavailability", "setting": "in vivo [1]", "value": 20, "unit": "%"},
      {"measurement": "fraction unbound", "setting": "in vitro [2]", "value": 0.16},
      {"measurement": "Vd", "setting": "in vivo [3]", "value": 4.7, "unit": "L/kg"},
      {"measurement": "fraction unbound", "setting": "in vitro [4]", "value": 0.074},
      {"measurement": "AUC", "setting": "in vivo [5]", "value": 160, "unit": "ng·h/mL"},
      {"measurement": "half-life", "setting": "in vivo [6]", "value": 3.2, "unit": "h"}
    ]},
    {"smiles": "COc1ccc(F)cc1-c1ccnc2[nH]c(C3=CCC(N4CCC(C(=O)O)CC4)CC3)cc12", "note": "(centres undefined)", "values": [
      {"measurement": "IC50", "setting": "NCI-H929", "value": 170, "unit": "nM"}
    ]}
  ]
}
